Measured values reported in patent US20250345317A1, “New pharmaceutical compounds, methods and uses thereof” (BBIT-THERAPEUTICS, LDA., priority 2020, published 2025).

What was measured:
[1] = tested on: PD-OVCA#9 (mutBRCA1: c. 4389C > G; mutBRCA2: c6252delT); test: Growth inhibition, MTS assay, PD-OVCA#9; type: cell-based, human; conditions: Homo sapiens, PD-OVCA#9, pathogenic mutant BRCA1/2, 48 hours
Source text: (§1) Table 2 refers to the growth inhibitory effect of COMP, olaparib and cisplatin (CDDP) in a panel of human immortalized breast (T47D, MCF-7, MDA-MB-231, MDA-MB-468, SK-BR-3 and HCC1937), ovarian and endocervical (OCVAR, SKOV-3, […],IGROV-1 and HeLa), pancreatic (PANC-1 and MIAPACA), neuroblastoma (SHSY-5Y), lung (NCI-H460), prostate (VCaP) melanoma (A375 and SK-MEL-5) and glioblastoma (SF-208) cancer cells, immortalized normal MCF10a and HFF1 human cells, and patient-derived ovarian (PD-OVCA #1, #9, #41, #49 and #62) cancer cells. […] Data are mean±SEM (n=5).
(§2) In an embodiment, IC50 values were determined by Sulforhodamine B (SRB) or MTS [3-(4,5-dimethylthiazol-2-yl)-5-(3-carboxymethoxyphenyl)-2-(4-sulfophenyl)-2H-tetrazolium] assay in immortalized and PD-OVCA cells, respectively. Cancer cells were plated in 96-well plates and incubated for 24 hours. Cells were then exposed to serial dilutions of compounds for 48 hours. The solvent DMSO corresponding to the maximum concentration used in these assays (0.025%) was included as control. Results are the mean±S.E.M. of 3-5 independent experiments.

[2] = tested on: PD-OVCA#1 (Lack of exon 17 in BRCA1); test: Growth inhibition, MTS assay, PD-OVCA#1; type: cell-based, human; conditions: Homo sapiens, PD-OVCA#1, pathogenic mutant BRCA1/2, 48 hours
Source text: as §1, §2

PD-OVCA#49 = test: Growth inhibition, MTS assay, PD-OVCA#49; type: cell-based, human; conditions: Homo sapiens, PD-OVCA#49, wild-type BRCA1/2, 48 hours
Source text: as §1, §2

T47D = test: Growth inhibition, SRB assay, T47D; type: cell-based, human; conditions: Homo sapiens, 48 h
Source text: as §1, §2

[3] = tested on: phosphorylated (Ser139) histone H2AX (γH2AX); test: γH2AX expression and foci formation; type: cell-based, human; conditions: 12 μM, 48 hours; MDA-MB-231, HCC1937 and IGROV-1 cells
Procedure: (§3) FIG. 10 illustrates the effect of 12 μM COMP on (A) γH2AX expression levels and on (FIG. 10B) γH2AX and RAD51 foci formation, and BRCA1 foci formation and cellular localization after 48 hours of treatment. […] FIG. 10B are representative images generated using Fiji software (scale bar=100 μm; 400 × magnification).
In an embodiment, 12 μM of COMP increased the amount of phosphorylated (Ser139) histone H2AX (γH2AX) (FIG. 10A) and the number of γH2AX-positive foci formed in MDA-MB-231, HCC1937 and IGROV-1 cells (FIG. 10B and FIG. 10C).

SF-208 = test: Growth inhibition, SRB assay, SF-208; type: cell-based; conditions: Homo sapiens, SF-208, wild-type BRCA1/2, 48 hours
Source text: as §1, §2

[4] = tested on: patient-derived ovarian cancer cells; test: Growth inhibition, patient-derived ovarian cancer cells; type: cell-based; conditions: Homo sapiens; range over PD-OVCA cells; MTS, 48 hours
Procedure: (§4) In an embodiment, the activity of COMP compound was tested in an array of human normal and cancer cell lines (Table 2, FIG. 2).
as §1, §2

[5] = tested on: pancreatic cancer cells (PANC-1 and MIAPACA); test: Growth inhibition, pancreatic cancer cells; type: cell-based; conditions: Homo sapiens, Pancreatic cancer cell, 48 hours
Procedure: as §4, §1, §2

Vcap = test: Growth inhibition, SRB assay, Vcap; type: cell-based; conditions: Homo sapiens, wild-type BRCA1/2, 48 hours
Source text: as §1, §2

MDA-MB-231 = test: Growth inhibition, SRB assay, MDA-MB-231; type: cell-based, human; conditions: Homo sapiens, MDA-MB-231, 48 h
Source text: as §1, §2

[6] = tested on: MDA-MB-231, HCC1937 and IGROV-1 cells; test: DNA damage by comet assay; type: cell-based, human; conditions: 6 μM and 12 μM, 48 hours
Procedure: FIG. 8 illustrates the effect of 6 and 12 μM COMP on triple-negative breast cancer and ovarian cancer cells' DNA damage after 48 hours of treatment, measured by comet assay. FIG. 8A are representative images (scale bar=20 μm; 200× magnification).
(§5) In an embodiment, COMP decreased homologous recombination DNA repair and disrupted the BRCA1-BARD1 interaction.

MDA-MB-468 = test: Growth inhibition, SRB assay, MDA-MB-468; type: cell-based, human; conditions: Homo sapiens, MDA-MB-468, 48 h
Source text: as §1, §2

HCC1937 (5382insC) = test: Growth inhibition, SRB assay, HCC1937; type: cell-based, human; conditions: Homo sapiens, HCC1937, 48 h
Source text: as §1, §2

MCF7 DR-GFP cells = test: Chromosomal DR-GFP homologous recombination assay; type: cell-based, human; conditions: 2 μM and 6 μM, 48 hours
Procedure: FIG. 9 illustrates the effect of 2 and 6 μM COMP after 48 hours of treatment on homologous recombination activity in MCF7 DR-GFP cells using the chromosomal DR-GFP assay. After 72 hours of double strand breaks induction, MCF7 DR-GFP cells were analysed by flow cytometry to quantify the percentage of GFP-positive cells.
as §5

[7] = tested on: breast cancer cells (T47D, MCF-7, MDA-MB-231, MDA-MB-468, SK-BR-3 and HCC1937); test: Growth inhibition, panel of breast cancer cells; type: cell-based; conditions: Homo sapiens, range over T47D, 48 hours
Procedure: as §4, §1, §2

RAD51 = RAD51 foci formation by immunofluorescence; type: cell-based, human; conditions: 12 μM, 48 hours
Procedure: as §3

[8] = tested on: triple-negative breast cancer and ovarian cancer cells; test: Cell cycle progression by flow cytometry (propidium iodide); type: cell-based, human; conditions: MDA-MB-231 cells, 6 and 12 μM, 48 hours
Procedure: Cell cycle phases were analysed by flow cytometry using propidium iodide (PI) and quantified using the FlowJo software. Apoptosis and ROS were analysed by flow cytometry using FITC-Annexin V/PI and 2′,7′-dichlorodihydrofluorescein diacetate (H2DCFDA) respectively.
In an embodiment, the COMP compound modulated the expression of key proteins involved in homologous DNA repair, proliferation, chemoresistance, induced cell cycle arrest, apoptosis and ROS generation, in triple-negative breast cancer and ovarian cancer cells.

- IC50 (T47D; BRCA1 wild-type, 48 hours (second Table 2)): 11.5 µM
- IC50 (T47D; wild-type BRCA1/2, 48 hours): 11.5 ± 3 µM
- IC50 [4]: 2.68 to 15.1 µM
- IC50 [5]: 4.5 µM
- IC50 (Vcap): 11.7 ± 3.4 µM
- IC50 (MDA-MB-231; MDA-MB-231, BRCA1 loss of heterozigoty, 48 hours): 5 ± 1.4 µM
- IC50 (MDA-MB-231; MDA-MB-231, BRCA1 loss of heterozygosity, 48 hours (second Table 2)): 5 µM
- IC50 (MDA-MB-468; MDA-MB-468, BRCA1 loss of heterozigoty, 48 hours): 4.4 ± 0.8 µM
- IC50 (MDA-MB-468; MDA-MB-468, BRCA1 loss of heterozygosity, 48 hours (second Table 2)): 4.4 µM
- IC50 (HCC1937 (5382insC); HCC1937, BRCA1 mutant, 48 hours (second Table 2)): 5.2 µM
- IC50 (HCC1937 (5382insC); HCC1937, mutant BRCA1, 48 hours): 5.2 ± 1.3 µM
- IC50 [7]: 4.4 to 12 µM
SMILES: CC[C@H]1CN(C)C2Cc3c([nH]c4ccccc34)/C(=N/Nc3ccc(Br)cn3)C[C@@H]1[C@@H]2C(=O)OC [COMP, methyl (5R,6S,14S,E)-8-(2-(5-bromopyridin-2-yl) hydrazineylidene)-5-ethyl-3-methyl-2,3,4,5,6,7,8,9-octahydro-1H-2,6-methanoazecino [5,4-b]indole-14-carboxylate]
- IC50 [1]: 5.1 ± 1 µM
- IC50 [2]: 2.7 ± 0.6 µM
- IC50 (PD-OVCA#49): 15.1 ± 1.4 µM
- amount of γH2AX and number of γH2AX-positive foci [3]: increased
- IC50 (SF-208): 12.5 ± 0.45 µM
- percentage of comet-positive cells (tail DNA, tail moment) [6]: significantly increased
- homologous recombination DNA repair capacity (GFP-positive cells) (MCF7 DR-GFP cells): marked reduction
- RAD51-foci formation (RAD51): pronounced reduction
- cell cycle arrest phase [8]: cell cycle arrest at G0/G1-
